For this test, the target named is Human immunodeficiency virus type 1 protease (Human immunodeficiency virus 1, UniProt Q72874). Kind of test: Binding affinity towards HIV-1 Protease.

Consider `CC(C)C1CC(O)C(C(C)C)C23c4c5c6c7c8c9c(c%10c%11c2c2c4c4c%12c5c5c6c6c8c8c%13c9c9c%10c%10c%11c%11c2c2c4c4c%12c%12c5c5c6c8c6c8c%13c9c9c%10c%10c%11c2c2c4c4c%12c5c6c5c8c9c%10c2c45)C713` (stereo not drawn), for which the inhibitory constant (Ki) (as a rule, the equilibrium dissociation constant of an inhibitor or competing ligand from its target) amounted to 150 nM.
Compound `O=C(O)CCC(=O)NCCc1ccc(C2(c3ccc(CCNC(=O)CCC(=O)O)cc3)C34c5c6c7c8c9c%10c(c%11c%12c3c3c5c5c%13c6c6c7c7c9c9c%14c%10c%10c%11c%11c%12c%12c3c3c5c5c%13c%13c6c6c7c9c7c9c%14c%10c%10c%11c%11c%12c3c3c5c5c%13c6c7c6c9c%10c%11c3c56)C824)cc1` registered a Ki of 5000 nM.
Then `OC(c1ccccc1)C1(c2ccccc2)C23c4c5c6c7c8c9c(c%10c%11c2c2c4c4c%12c5c5c6c6c8c8c%13c9c9c%10c%10c%11c%11c2c2c4c4c%12c%12c5c5c6c8c6c8c%13c9c9c%10c%10c%11c2c2c4c4c%12c5c6c5c8c9c%10c2c45)C731` (stereo not drawn), with 103 nM.

(Values after ChEMBL document CHEMBL1131004, “Optimizing the binding of fullerene inhibitors of the HIV-1 protease through predicted increases in hydrophobic desolvation” (J Med Chem, 1998).)
